Patent US9050345B2, “Pyrrolotriazines as potassium ion channel inhibitors” (BRISTOL-MYERS SQUIBB COMPANY, priority 2013, dated 2015)

Molecular target: T1, human KV 1.5 (IKur) (Homo sapiens, UniProt P22460)
T1 construct: expressed in transfected cells
Assay: block of IKur current in patch clamped L-929 cells expressing human Kv1.5
Type: cell-based
Conditions: patch clamped mammalian L-929 cells stably expressing human Kv1.5; for inhibition at 0.3 µM: L929, 0.3 μM, read-out: KV1_5% Inh L929 @0.3 μM
Text: Assays to determine the degree of activity of a compound as an IKur inhibitor are well known in the art and are described in references such as J. Gen. Physiol., 101(4):513-543 (April 1993), and Br. J. Pharmacol., 115(2):267-274 (May 1995).
Synders, D. J. et al., “A rapidly activating and slowly inactivating potassium channel cloned from human heart: functional analysis after stable mammalian cell culture expression”, J. Gen. Physiol., 101:513-543 (1993). • 2. Zhou, Z. et al., “Block of HERG potassium channels by the antihistamine astemizole and its metabolites desmethylastemizole and norastemizole”, J. Cardiovasc. Electrophysiol., 10(6):836-843 (1999).

T1 sequence (P22460 whole entry): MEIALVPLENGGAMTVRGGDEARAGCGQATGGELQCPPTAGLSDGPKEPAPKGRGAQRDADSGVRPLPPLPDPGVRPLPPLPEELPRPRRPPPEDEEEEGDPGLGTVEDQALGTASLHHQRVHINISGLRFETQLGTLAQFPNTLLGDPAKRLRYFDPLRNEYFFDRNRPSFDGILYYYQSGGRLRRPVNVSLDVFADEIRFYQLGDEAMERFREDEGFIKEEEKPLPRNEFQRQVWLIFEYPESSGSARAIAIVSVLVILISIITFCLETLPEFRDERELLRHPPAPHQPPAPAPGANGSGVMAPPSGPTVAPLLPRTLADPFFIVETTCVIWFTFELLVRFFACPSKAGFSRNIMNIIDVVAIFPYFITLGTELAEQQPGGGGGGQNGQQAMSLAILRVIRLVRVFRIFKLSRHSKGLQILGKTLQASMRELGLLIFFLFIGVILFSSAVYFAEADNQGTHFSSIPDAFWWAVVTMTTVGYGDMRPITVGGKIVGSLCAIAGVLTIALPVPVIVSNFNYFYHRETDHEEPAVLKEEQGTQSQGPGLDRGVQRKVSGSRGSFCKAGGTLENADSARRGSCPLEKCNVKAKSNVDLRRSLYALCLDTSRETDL

inhibition at 0.3 µM [%] | KV1_5% Inh L929 @0.3 μM (0.3 μM) [%] | SMILES
90.2 | – | CC(=O)Nc1ccc(-c2nc(NCc3ccccn3)c3c(-c4ccccc4)ccn3n2)cn1 [Example 54, N-(5-(5-phenyl-4-(pyridin-2-ylmethylamino)pyrrolo[1,2-f][1,2,4]triazin-2-yl)pyridin-2-yl)acetamide]
91.1 | – | NS(=O)(=O)c1cc(-c2nc(NCc3ccccc3)c3c(-c4ccccc4)ccn3n2)cnc1O [Example 16, 5-(4-(Benzylamino)-5-phenylpyrrolo[1,2-f][1,2,4]triazin-2-yl)-2-hydroxypyridine-3-sulfonamide]
88.2 | – | N#Cc1cc(-c2nc(NCc3ccccc3)c3c(-c4ccccc4)ccn3n2)ccn1 [Example 92, 4-(4-(benzylamino)-5-phenylpyrrolo [1,2-f][1,2,4]triazin-2-yl) picolinonitrile]
97.3 | – | NS(=O)(=O)c1cncc(-c2nc(NCc3ncccn3)c3c(-c4ccccc4)ccn3n2)c1 [Example 152, 5-(5-phenyl-4-((pyrimidin-2-ylmethyl)amino)pyrrolo[2,1-f][1,2,4]triazin-2-yl)pyridine-3-sulfonamide]
92.2 | – | O=C(O)/C=C/c1cncc(-c2nc(NCc3ccccc3)c3c(-c4ccccc4)ccn3n2)c1 [Example 99, (E)-3-(5-(4-(benzylamino)-5-phenylpyrrolo [1,2-f][1,2,4]triazin-2-yl)pyridin-3-yl)acrylic acid]
97 | – | CCOC(=O)CCNC(=O)c1cncc(-c2nc(NCc3ccccc3)c3c(-c4ccccc4)ccn3n2)c1 [Example 89, ethyl 3-(5-(4-(benzylamino)-5-phenylpyrrolo [1,2-f][1,2,4]triazin-2-yl)nicotinamido) propanoate]
85.4 | – | COc1ccc(-c2ccn3nc(-c4cncc(N)c4)nc(NCc4ccccn4)c23)cn1 [Example 70, 2-(5-aminopyridin-3-yl)-5-(6-methoxypyridin-3-yl)-N-(pyridin-2-ylmethyl) pyrrolo[1,2-f][1,2,4] triazin-4-amine]
91.7 | – | NS(=O)(=O)c1cncc(-c2nc(NCc3ccccn3)c3c(-c4ccc(F)cc4)ccn3n2)c1 [Example 6, 5-(5-(4-Fluorophenyl)-4-(pyridin-2-ylmethylamino)pyrrolo[1,2-f][1,2,4]triazin-2-yl)pyridine-3-sulfonamide]
83.9 | – | NS(=O)(=O)c1cncc(-c2nc(NCC3CCCCC3)c3c(-c4ccccc4)ccn3n2)c1 [Example 131, 5-(4-((cyclohexylmethyl)amino)-5-phenylpyrrolo [2,1-f][1,2,4]triazin-2-yl)pyridine-3-sulfonamide]
94.7 | – | NS(=O)(=O)c1cncc(-c2nc(NCc3cnccn3)c3c(-c4ccccc4)ccn3n2)c1 [Example 160, 5-(5-phenyl-4-(pyrazin-2-ylmethylamino)pyrrolo [1,2-f][1,2,4]triazin-2-yl)pyridine-3-sulfonamide]
96.3 | – | COCCNC(=O)c1cncc(-c2nc(NCc3ccccc3)c3c(-c4ccccc4)ccn3n2)c1 [Example 85, 5-(4-(benzylamino)-5-phenylpyrrolo [1,2-f][1,2,4]triazin-2-yl)-N-(2-methoxyethyl) nicotinamide]
97.1 | – | COc1ncc(-c2nc(NCc3nc(C)cs3)c3c(-c4ccccc4)ccn3n2)cc1S(N)(=O)=O [Example 175, 2-methoxy-5-(4-(((4-methylthiazol-2-yl)methyl)amino)-5-phenylpyrrolo [2,1-f][1,2,4]triazin-2-yl)pyridine-3-sulfonamide]
40.9 | 47.37 | OCC(O)c1nc(NCc2ccccc2)c2c(-c3ccccc3)ccn2n1 (stereo not shown) [Example 18, 1-(4-(Benzylamino)-5-phenylpyrrolo[1,2-f][1,2,4]triazin-2-yl)ethane-1,2-diol]
97 | – | CCOC(=O)Nc1cncc(-c2nc(NCc3ccccn3)c3c(-c4ccccc4)ccn3n2)c1 [Example 59, ethyl 5-(5-phenyl-4-(pyridin-2-ylmethylamino)pyrrolo[1,2-f][1,2,4]triazin-2-yl)pyridin-3-ylcarbamate]
93.8 | – | CC(Nc1nc(-c2cncc(S(N)(=O)=O)c2)nn2ccc(-c3ccccc3)c12)c1ccc(F)cc1 (stereo not shown) [Example 76, 5-(4-(1-(4-fluorophenyl)ethylamino)-5-phenylpyrrolo[1,2-f] [1,2,4]triazin-2-yl) pyridine-3-sulfonamide]
75.8 | – | O=C(Nc1ccc(CCO)cc1)c1nc(NCc2ccccc2)c2c(-c3ccccc3)ccn2n1 [Example 122, 4-(benzylamino)-N-(4-(2-hydroxyethyl)phenyl)-5-phenylpyrrolo [1,2-f][1,2,4] triazine-2-carboxamide]
98.8 | – | NC(=O)[C@@H]1C[C@H]1c1nc(NCc2ccccn2)c2c(-c3ccccc3)ccn2n1 (racemic) [Example 44, (±)-2-(5-Phenyl-4-(pyridin-2-ylmethylamino)pyrrolo[1,2-f][1,2,4]triazin-2-yl)cyclopropanecarboxamide]

inhibition at 0.3 µM [%] | KV1_5% Inh L929 @0.3 μM (0.3 μM) [%] | SMILES
89.8 | – | NS(=O)(=O)c1cncc(-c2nc(NC(c3ccccc3)C(F)(F)F)c3c(-c4ccccc4)ccn3n2)c1 (stereo not shown) [Example 83, 5-(5-phenyl-4-(2,2,2-trifluoro-1-phenylethylamino)pyrrolo [1,2-f][1,2,4]triazin-2-yl)pyridine-3-sulfonamide]
93.6 | – | NS(=O)(=O)c1cncc(-c2nc(NCC3CCCCO3)c3c(-c4ccccc4)ccn3n2)c1 (stereo not shown) [Example 101, 5-(5-phenyl-4-((tetrahydro-2H-pyran-2-yl)methylamino)pyrrolo [1,2-f][1,2,4]triazin-2-yl)pyridine-3-sulfonamide]
86 | – | O=C(O)c1cncc(-c2nc(NCc3ccccn3)c3c(-c4ccccc4)ccn3n2)c1 [Example 10, 5-(5-Phenyl-4-(pyridin-2-ylmethylamino)pyrrolo[1,2-f][1,2,4]triazin-2-yl)nicotinic acid]
90 | – | NS(=O)(=O)c1cncc(-c2nc(NCc3ccncc3)c3c(-c4ccccc4)ccn3n2)c1 [Example 159]
95 | – | CCOc1ncc(-c2nc(NCc3ccccn3)c3c(-c4ccccc4)ccn3n2)cc1S(N)(=O)=O [Example 134, 2-ethoxy-5-(5-phenyl-4-((pyridin-2-ylmethyl)amino)pyrrolo [2,1-f][1,2,4]triazin-2-yl)pyridine-3-sulfonamide]
90 | – | O=S(=O)(CC(F)(F)F)Nc1cncc(-c2nc(NCc3ccccn3)c3c(-c4ccccc4)ccn3n2)c1 [Example 61, 2,2,2-trifluoro-N-(5-(5-phenyl-4-(pyridin-2-ylmethylamino)pyrrolo [1,2-f][1,2,4]triazin-2-yl)pyridin-3-yl)ethanesulfonamide]
45 | – | O=C(NC1(CO)CCCC1)c1nc(NCc2ccccc2)c2c(-c3ccccc3)ccn2n1 [Example 118, 4-(benzylamino)-N-(1-(hydroxymethyl)cyclopentyl)-5-phenylpyrrolo [1,2-f][1,2,4] triazine-2-carboxamide]
91.6 | – | NS(=O)(=O)c1cncc(-c2nc(NCCOc3cnccn3)c3c(-c4ccccc4)ccn3n2)c1 [Example 23, 5-(5-Phenyl-4-((2-(pyrazin-2-yloxy)ethyl)amino)pyrrolo[2,1-f][1,2,4]triazin-2-yl)pyridine-3-sulfonamide]
98.4 | – | NC(=O)c1cncc(-c2nc(NCc3ccccn3)c3c(-c4ccccc4)ccn3n2)c1 [Example 9, 5-(5-Phenyl-4-(pyridin-2-ylmethylamino)pyrrolo[1,2-f][1,2,4]triazin-2-yl)nicotinamide]
35.2 | – | NC(=O)c1ccccc1NC(=O)c1nc(NCc2ccccc2)c2c(-c3ccccc3)ccn2n1 [Example 114, 4-(benzylamino)-N-(2-carbamoylphenyl)-5-phenylpyrrolo [1,2-f][1,2,4] triazine-2-carboxamide]
72.2 | – | O=C(c1cncc(-c2nc(NCc3ccccc3)c3c(-c4ccccc4)ccn3n2)c1)N(CCO)CCO [Example 103, 5-(4-(benzylamino)-5-phenylpyrrolo[1,2-f] [1,2,4]triazin-2-yl)-N, N-bis(2-hydroxyethyl) nicotinamide]
88.2 | – | CCOC(=O)CS(=O)(=O)Nc1cncc(-c2nc(NCc3ccccn3)c3c(-c4ccccc4)ccn3n2)c1 [Example 51, ethyl 2-(N-(5-(5-phenyl-4-(pyridin-2-ylmethylamino)pyrrolo[1,2-f][1,2,4]triazin-2-yl)pyridin-3-yl)sulfamoyl)acetate]
99.1 | – | COc1cccc(CNc2nc(-c3cncc(S(N)(=O)=O)c3)nn3ccc(-c4ccccc4)c23)n1 [Example 140, 5-(4-(((6-methoxypyridin-2-yl)methyl)amino)-5-phenylpyrrolo [2,1-f][1,2,4]triazin-2-yl)pyridine-3-sulfonamide]
96.5 | – | NS(=O)(=O)c1cncc(-c2nc(NCc3ccccc3)c3c(-c4ccccc4)ccn3n2)c1 [Example 1, 5-(4-(Benzylamino)-5-phenylpyrrolo[1,2-f][1,2,4]triazin-2-yl)pyridine-3-sulfonamide]
93.7 | – | NS(=O)(=O)c1cncc(-c2nc(NCc3ccccn3)c3c(-c4ccccc4)ccn3n2)c1C(F)F [Example 182, 4-(difluoromethyl)-5-(5-phenyl-4-((pyridin-2-ylmethyl)amino)pyrrolo [2,1-f][1,2,4]triazin-2-yl)pyridine-3-sulfonamide]
96.1 | – | CC(C)CS(=O)(=O)Nc1cncc(-c2nc(NCc3ccccn3)c3c(-c4ccccc4)ccn3n2)c1 [Example 58, 2-methyl-N-(5-(5-phenyl-4-(pyridin-2-ylmethylamino)pyrrolo [1,2-f][1,2,4]triazin-2-yl)pyridin-3-yl) propane-1-sulfonamide]
